Test system: bacteria
Test: Tests performed in vitro on bacteria
Assay type: cell-based
Details: many types of bacteria
Source text: The inventors of the instant invention have investigated NO for its use as a sterilizing agent in the prevention and treatment of infections. […] PCT International Application No. PCT/CA99/01123, a published Jun. 2, 2000, discloses a method and an apparatus for the treatment of human respiratory infections by NO inhalation.

## [N]=O [NO, nitric oxide]
  effect on growth / killing of bacteria: interfere with the growth of and/or kill many types of bacteria
